Test results published in PubChem BioAssay (NCI).
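Grown in 96-well plates, cells were treated for 48 hours with each compound at five concentrations. Insufficient inhibition: endpoint recorded as highest concentration tested. TGI: concentration producing complete growth inhibition.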

Experiments:
Assay in all cases: NCI tumour cell line growth inhibition, 48 h
[1] = system: A498 renal
[2] = system: NCI-H460 lung
[3] = system: NCI-H522 lung
[4] = system: BT-549 breast
[5] = system: NCI-H226 lung
[6] = system: OVCAR-5 ovarian
[7] = system: UO-31 renal
[8] = system: OVCAR-8 ovarian
[9] = system: RXF-631 renal
[10] = system: SN12C renal
[11] = system: NCI/ADR-RES ovarian
[12] = system: LXFL 529 NSCLC
[13] = system: CCRF-CEM leukemia
[14] = system: HOP-18 NSCLC
[15] = system: SK-MEL-28 melanoma
[16] = system: COLO 205 colon
[17] = system: PC-3 prostate
[18] = system: EKVX NSCLC
[19] = system: SF-295 CNS
[20] = system: SR leukemia
[21] = system: SF-268 CNS
[22] = system: MOLT-4 leukemia
[23] = system: 786-0 renal
[24] = system: SK-OV-3 ovarian
[25] = system: MCF7 breast
[26] = system: HOP-62 NSCLC
[27] = system: SF-539 CNS
[28] = system: M14 melanoma
[29] = system: SNB-75 CNS
[30] = system: HCT-15 colon
[31] = system: CAKI-1 renal
[32] = system: RXF 393 renal
[33] = system: KM20L2 colon
[34] = system: SNB-19 CNS
[35] = system: MALME-3M melanoma
[36] = system: LOX IMVI melanoma
[37] = system: HL-60(TB) leukemia
[38] = system: HCT-116 colon
[39] = system: DLD-1 colon
[40] = system: HS 578T breast
[41] = system: UACC-257 melanoma
[42] = system: SK-MEL-5 melanoma
[43] = system: M19-MEL melanoma
[44] = system: TK-10 renal
[45] = system: IGROV1 ovarian
[46] = system: HOP-92 NSCLC
[47] = system: A549 NSCLC
[48] = system: SK-MEL-2 melanoma
[49] = system: MDA-MB-435
[50] = system: K-562 leukemia
[51] = system: DMS 273 small cell lung
[52] = system: NCI-H23 lung
[53] = system: KM12 colon
[54] = system: SNB-78 CNS
[55] = system: DU-145 prostate
[56] = system: OVCAR-4 ovarian
[57] = system: MDA-MB-231 breast
[58] = system: RPMI-8226 leukemia
[59] = system: UACC-62 melanoma
[60] = system: SW-620 colon
[61] = system: HCC-2998 colon
[62] = system: ACHN renal
[63] = system: HT29 colon
[64] = system: XF 498 CNS
[65] = system: OVCAR-3 ovarian
[66] = system: T-47D breast
[67] = system: MDA-N
[68] = system: U251 CNS
[69] = system: DMS 114 small cell lung

COc1ccc(-c2oc3cc(O)c(OC)c(O)c3c(=O)c2O)cc1
TGI [1]: 22.3 µM
TGI [2]: 26.4 µM
TGI [3]: 57.8 µM
TGI [4]: 72.8 µM
TGI [5]: 24.4 µM
TGI [6]: > 70.1 µM
TGI [7]: > 61.3 µM
TGI [8]: > 75.3 µM
TGI [9]: > 100 µM
TGI [10]: > 75.2 µM
TGI [11]: 48.5 µM
TGI [12]: > 100 µM
TGI [13]: 14.8 µM
TGI [14]: > 100 µM
TGI [15]: > 100 µM
TGI [16]: > 80.6 µM
TGI [17]: > 100 µM
TGI [18]: > 100 µM
TGI [19]: 53.6 µM
TGI [20]: 20.8 µM
TGI [21]: > 77.1 µM
TGI [22]: 12.9 µM
TGI [23]: 33.1 µM
TGI [24]: 42.8 µM
TGI [25]: 63.7 µM
TGI [26]: 25.7 µM
TGI [27]: 41.6 µM
TGI [28]: > 100 µM
TGI [29]: 63.2 µM
TGI [30]: 52.2 µM
TGI [31]: 65.3 µM
TGI [32]: 50.2 µM
TGI [33]: > 100 µM
TGI [34]: > 100 µM
TGI [35]: 88.2 µM
TGI [36]: > 78.6 µM
TGI [37]: 9.19 µM
TGI [38]: > 66.6 µM
TGI [39]: 30.8 µM
TGI [40]: > 92.7 µM
TGI [41]: > 100 µM
TGI [42]: 34 µM
TGI [43]: > 100 µM
TGI [44]: > 100 µM
TGI [45]: > 100 µM
TGI [46]: > 72.3 µM
TGI [47]: 18 µM
TGI [48]: > 100 µM
TGI [49]: > 100 µM
TGI [50]: > 53.5 µM
TGI [51]: 30 µM
TGI [52]: > 100 µM
TGI [53]: > 100 µM
TGI [54]: > 100 µM
TGI [55]: > 24.9 µM
TGI [56]: > 100 µM
TGI [57]: > 100 µM
TGI [58]: 31.5 µM
TGI [59]: > 87.8 µM
TGI [60]: > 70.1 µM
TGI [61]: > 60.2 µM
TGI [62]: 10.7 µM
TGI [63]: > 100 µM
TGI [64]: > 100 µM
TGI [65]: > 100 µM
TGI [66]: > 100 µM
TGI [67]: > 100 µM
TGI [68]: 30.2 µM

N#COc1ccc(Oc2ccc(OC#N)cc2)cc1
TGI [69]: 92.7 µM
TGI [1]: > 100 µM
TGI [2]: > 100 µM
TGI [3]: > 100 µM
TGI [5]: > 100 µM
TGI [6]: > 100 µM
TGI [7]: > 100 µM
TGI [8]: > 100 µM
TGI [9]: > 100 µM
TGI [10]: > 100 µM
TGI [12]: > 100 µM
TGI [13]: 50.4 µM
TGI [14]: > 100 µM
TGI [15]: > 100 µM
TGI [16]: 54 µM
TGI [18]: > 100 µM
TGI [19]: > 100 µM
TGI [20]: 50.1 µM
TGI [21]: > 100 µM
TGI [22]: > 100 µM
TGI [23]: > 100 µM
TGI [24]: > 100 µM
TGI [26]: > 100 µM
TGI [27]: > 100 µM
TGI [28]: > 100 µM
TGI [29]: > 100 µM
TGI [30]: > 100 µM
TGI [31]: > 100 µM
TGI [32]: > 100 µM
TGI [33]: > 100 µM
TGI [34]: > 100 µM
TGI [35]: > 100 µM
TGI [36]: 33.9 µM
TGI [37]: > 100 µM
TGI [38]: > 100 µM
TGI [39]: > 100 µM
TGI [41]: > 100 µM
TGI [42]: > 100 µM
TGI [43]: > 100 µM
TGI [44]: > 100 µM
TGI [45]: > 100 µM
TGI [46]: > 100 µM
TGI [47]: > 100 µM
TGI [48]: > 100 µM
TGI [50]: > 100 µM
TGI [52]: > 100 µM
TGI [53]: > 100 µM
TGI [54]: > 100 µM
TGI [56]: > 100 µM
TGI [58]: > 100 µM
TGI [59]: > 100 µM
TGI [61]: > 100 µM
TGI [62]: > 100 µM
TGI [63]: > 100 µM
TGI [64]: > 100 µM
TGI [65]: > 100 µM
TGI [68]: > 100 µM
